The text below walks through data of ChEMBL document CHEMBL1201862, “PubChem BioAssay data set” (2004).

For test [1], the target named is T1, Kappa-type opioid receptor (Homo sapiens, UniProt P41145). The experiment in a line: kappa opioid receptor activation potency – imaging, image-based, SAR follow-up (AID 2359). Type of test: functional.
The target of test [2] is Voltage-dependent T-type calcium channel subunit alpha-1H (Homo sapiens, UniProt O95180). Type of test: functional.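 Further: channel activity triggered by adding a high calcium stimulation buffer.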
In test [3] the target is T1, Kappa-type opioid receptor. Briefly: SAR analysis of small molecule agonists of the kappa opioid receptor via a luminescent beta-arrestin assay. [Related pubchem assays (depositor defined):AID1777, AID1786, AID1966, AID2133, AID2136, AID2348, AID2352, AID2357, AID2359, AID2370, AID2420, AID2478, AID2491, AID2492, AID2493, AID2497, AID2498, AID2500, AID449737, AID488822, AID488842]. Type of test: functional.

The target of test [4] is T1, Kappa-type opioid receptor. The class given is functional.
In test [5] the target is T2, Delta-type opioid receptor (Homo sapiens, UniProt P41143). Briefly: HTS Image-Based Screen for Antagonists of the DOR Receptor. [Related pubchem assays (depositor defined):AID1777, AID1785, AID1786, AID2133]. The class given is functional.
T2 sequence (P41143 whole entry): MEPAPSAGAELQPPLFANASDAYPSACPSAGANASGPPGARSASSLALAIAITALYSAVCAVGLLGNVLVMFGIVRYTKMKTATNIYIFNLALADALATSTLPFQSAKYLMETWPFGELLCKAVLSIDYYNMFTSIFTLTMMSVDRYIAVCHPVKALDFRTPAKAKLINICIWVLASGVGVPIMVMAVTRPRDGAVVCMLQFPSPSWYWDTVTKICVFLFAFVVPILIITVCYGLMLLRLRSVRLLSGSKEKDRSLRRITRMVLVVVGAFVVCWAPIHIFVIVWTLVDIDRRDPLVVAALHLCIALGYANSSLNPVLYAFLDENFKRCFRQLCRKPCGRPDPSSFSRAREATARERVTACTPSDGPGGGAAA
For test [6], the target named is T2, Delta-type opioid receptor. The experiment in a line: DOR agonists, SAR follow-up, image-based (AID 2370). The class given is functional.
The target of test [7] is T2, Delta-type opioid receptor. The experiment in a line: HTS Image-Based Screen for Agonists of the DOR Receptor. [Related pubchem assays (depositor defined):AID1777, AID1786, AID2133]. The class given is functional.
The target of test [8] is T2, Delta-type opioid receptor. Briefly: delta opioid receptor blockers – image-based, SAR follow-up (AID 2357). The class given is functional.
The target in test [9] is T3, Mu-type opioid receptor (Homo sapiens, UniProt P35372). Briefly: mu opioid receptor activators, image-based, SAR follow-up (AID 2352). The class given is functional.
T3 sequence (P35372 whole entry): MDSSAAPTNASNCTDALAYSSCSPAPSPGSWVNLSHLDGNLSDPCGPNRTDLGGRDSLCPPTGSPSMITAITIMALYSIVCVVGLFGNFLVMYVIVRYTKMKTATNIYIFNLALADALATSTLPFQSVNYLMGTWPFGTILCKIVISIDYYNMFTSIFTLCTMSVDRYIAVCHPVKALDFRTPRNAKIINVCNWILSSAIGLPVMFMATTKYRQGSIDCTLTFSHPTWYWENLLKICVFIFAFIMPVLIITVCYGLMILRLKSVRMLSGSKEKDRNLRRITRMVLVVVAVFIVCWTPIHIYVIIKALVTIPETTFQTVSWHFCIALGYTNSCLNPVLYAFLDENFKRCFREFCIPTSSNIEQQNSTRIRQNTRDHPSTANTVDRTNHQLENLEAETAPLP
The target of test [10] is T1, Kappa-type opioid receptor. The experiment in a line: kappa opioid receptor blockers, image-based, SAR follow-up (AID 2348). Type of test: functional.
The target of test [11] is T3, Mu-type opioid receptor. The experiment in a line: HTS Image-Based Screen for Agonists of the MOR Receptor. [Related pubchem assays (depositor defined):AID1777, AID1785, AID1786, AID2133]. Type of test: functional.
Test [12] addresses T1, Kappa-type opioid receptor. The class given is functional. The source holds these as a separate data set.
The target in test [13] is T3, Mu-type opioid receptor. The experiment in a line: mu opioid receptor blockers – image-based, SAR follow-up (AID 2420).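 Further: compounds added before stimulation of receptor with agonist DAMGO.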 Type of test: functional.
Test [14] in a line: restored growth of temperature-sensitive Burl-1 yeast – whole organism, S. cerevisiae, Burl-1 ts mutant, luminescence, counter-screen for SUMOylation pathway inhibitor project, dose response (AID 463199). Type of test: functional.
Test [15] concerns the target T4, Dual specificity protein phosphatase 3 (Homo sapiens, UniProt P51452). The experiment in a line: VHR1 phosphatase inhibitors, primary screen, biochemical, absorbance, uHTS (AID 1654).
For test [16], the target named is E3 ubiquitin-protein ligase XIAP (Homo sapiens, UniProt P98170). Briefly: Counter Screen using XIAP-Bir3 for Chemical Antagonists of Bir1/2 domains of IAP-family anti-apoptotic proteins. [Related pubchem assays (depositor defined):AID1018, AID1449, AID1514, AID1638, AID1749, AID1750, AID488957, AID488963]. (In general: A counterscreen serves to expose hits that act by an unwanted route or on another target.)

Test [17] has as its target T5, Voltage-gated N-type calcium channel alpha-1B subunit/Amyloid beta A4 precursor protein-binding family A member 1 (Homo sapiens, UniProt Q00975+Q02410). Type of test: protein assay.
The target in test [18] is T6, Dual specificity protein phosphatase 6 (Rattus norvegicus, UniProt Q64346).
T6 sequence (Q64346 whole entry): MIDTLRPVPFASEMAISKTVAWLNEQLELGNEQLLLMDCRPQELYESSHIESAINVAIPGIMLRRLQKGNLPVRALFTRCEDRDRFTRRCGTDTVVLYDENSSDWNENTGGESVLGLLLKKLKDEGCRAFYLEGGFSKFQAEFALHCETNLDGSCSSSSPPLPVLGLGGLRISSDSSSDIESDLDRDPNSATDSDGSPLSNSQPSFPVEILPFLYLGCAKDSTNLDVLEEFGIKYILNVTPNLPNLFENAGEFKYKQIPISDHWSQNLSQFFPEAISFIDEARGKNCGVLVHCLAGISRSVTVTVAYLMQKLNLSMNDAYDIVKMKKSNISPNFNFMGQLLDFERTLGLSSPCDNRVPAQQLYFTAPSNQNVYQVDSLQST
The experiment in a line: inhibition of rat DUSP6 enzyme activity – biochemical, in vitro, primary screen (AID 425).

For test [19], the target named is T5, Voltage-gated N-type calcium channel alpha-1B subunit/Amyloid beta A4 precursor protein-binding family A member 1. The class given is protein assay. This is another data set of the same source.
In test [20] the target is T4, Dual specificity protein phosphatase 3. Briefly: VHR1 phosphatase inhibitors, biochemical (AID 1878).
The target in a further test is Phosphomannomutase 2 (Homo sapiens, UniProt O15305). Briefly: Counter screen SAR assay for PMM2 inhibitors via a fluorescence intensity assay. [Related pubchem assays (depositor defined):AID1545, AID1574].
Chain of Phosphomannomutase 2 (O15305 whole entry): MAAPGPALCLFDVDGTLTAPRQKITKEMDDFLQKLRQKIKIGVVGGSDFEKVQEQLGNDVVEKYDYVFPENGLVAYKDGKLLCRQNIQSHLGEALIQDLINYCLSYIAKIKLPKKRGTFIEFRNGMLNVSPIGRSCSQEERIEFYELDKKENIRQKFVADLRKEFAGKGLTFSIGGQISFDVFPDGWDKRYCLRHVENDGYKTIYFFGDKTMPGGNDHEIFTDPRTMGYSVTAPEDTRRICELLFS
Test [21] addresses T7, Mannose-6-phosphate isomerase (Homo sapiens, UniProt P34949).
T7 sequence (P34949 whole entry): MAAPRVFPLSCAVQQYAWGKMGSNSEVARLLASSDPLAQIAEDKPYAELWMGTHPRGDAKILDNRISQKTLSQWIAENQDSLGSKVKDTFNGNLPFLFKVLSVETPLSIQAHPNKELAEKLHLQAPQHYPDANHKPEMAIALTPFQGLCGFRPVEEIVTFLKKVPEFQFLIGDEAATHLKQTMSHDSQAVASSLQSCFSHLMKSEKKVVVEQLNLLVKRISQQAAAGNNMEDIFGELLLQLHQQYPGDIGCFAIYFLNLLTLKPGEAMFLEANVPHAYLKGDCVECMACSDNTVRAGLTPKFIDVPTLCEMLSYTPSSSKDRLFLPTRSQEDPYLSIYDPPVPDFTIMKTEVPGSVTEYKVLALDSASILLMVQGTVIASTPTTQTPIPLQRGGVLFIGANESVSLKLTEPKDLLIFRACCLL
Briefly: phosphomannose isomerase inhibition – biochemical, fluorescence intensity, confirmation (AID 1535).

The target of test [22] is Intestinal-type alkaline phosphatase (Mus musculus, UniProt P24822). Briefly: PubChem AID 488785. Type of test: functional.
Test [23] deals with Intestinal-type alkaline phosphatase (Homo sapiens, UniProt P09923). Briefly: inhibition of human intestinal alkaline phosphatase – biochemical, dose response (AID 488876). Type of test: functional.
For test [24], the target named is T8, Alkaline phosphatase, tissue-nonspecific isozyme (Homo sapiens, UniProt P05186).
T8 sequence (P05186 whole entry): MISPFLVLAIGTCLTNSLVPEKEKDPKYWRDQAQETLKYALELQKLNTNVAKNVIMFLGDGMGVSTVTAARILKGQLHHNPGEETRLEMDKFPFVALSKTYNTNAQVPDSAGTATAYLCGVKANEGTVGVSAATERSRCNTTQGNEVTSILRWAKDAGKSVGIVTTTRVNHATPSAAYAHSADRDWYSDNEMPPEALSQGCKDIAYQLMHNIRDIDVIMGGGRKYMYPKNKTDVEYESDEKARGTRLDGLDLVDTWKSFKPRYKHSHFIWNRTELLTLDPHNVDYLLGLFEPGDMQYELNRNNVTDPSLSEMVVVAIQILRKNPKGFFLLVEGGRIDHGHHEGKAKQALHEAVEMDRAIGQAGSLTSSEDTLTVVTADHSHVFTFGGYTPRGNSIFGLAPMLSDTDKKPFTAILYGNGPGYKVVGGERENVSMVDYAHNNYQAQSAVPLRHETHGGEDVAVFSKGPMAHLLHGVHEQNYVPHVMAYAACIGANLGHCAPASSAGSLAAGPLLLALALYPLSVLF
The experiment in a line: TNAP enzyme inhibition by screening hits, dose response, selectivity assay for mouse IAP inhibitor project, biochemical, human TNAP, uHTS hits (AID 488906). Type of test: functional.

In the next test the test system is HEK293. Briefly: cells. Conditions: Homo sapiens.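 Further: cells exposed to compound for 14 hours overnight before viability readout.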
A further test deals with Tumor necrosis factor (Homo sapiens, UniProt P01375). Briefly: analog potency on TNFa NF-kB signaling – cell-based, revised, SAR follow-up (AID 2337). Type of test: functional.
Chain of Tumor necrosis factor (P01375 whole entry, the tested form may be a part): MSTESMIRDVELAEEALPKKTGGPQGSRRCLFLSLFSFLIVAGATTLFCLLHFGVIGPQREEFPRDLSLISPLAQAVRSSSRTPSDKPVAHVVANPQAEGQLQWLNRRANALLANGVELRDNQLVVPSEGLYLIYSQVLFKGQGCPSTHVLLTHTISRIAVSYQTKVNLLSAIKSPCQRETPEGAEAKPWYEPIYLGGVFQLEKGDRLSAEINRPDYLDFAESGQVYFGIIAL
Test [25] concerns the target T9, Nucleotide-binding oligomerization domain-containing protein 1 (Homo sapiens, UniProt Q9Y239).
T9 sequence (Q9Y239 whole entry): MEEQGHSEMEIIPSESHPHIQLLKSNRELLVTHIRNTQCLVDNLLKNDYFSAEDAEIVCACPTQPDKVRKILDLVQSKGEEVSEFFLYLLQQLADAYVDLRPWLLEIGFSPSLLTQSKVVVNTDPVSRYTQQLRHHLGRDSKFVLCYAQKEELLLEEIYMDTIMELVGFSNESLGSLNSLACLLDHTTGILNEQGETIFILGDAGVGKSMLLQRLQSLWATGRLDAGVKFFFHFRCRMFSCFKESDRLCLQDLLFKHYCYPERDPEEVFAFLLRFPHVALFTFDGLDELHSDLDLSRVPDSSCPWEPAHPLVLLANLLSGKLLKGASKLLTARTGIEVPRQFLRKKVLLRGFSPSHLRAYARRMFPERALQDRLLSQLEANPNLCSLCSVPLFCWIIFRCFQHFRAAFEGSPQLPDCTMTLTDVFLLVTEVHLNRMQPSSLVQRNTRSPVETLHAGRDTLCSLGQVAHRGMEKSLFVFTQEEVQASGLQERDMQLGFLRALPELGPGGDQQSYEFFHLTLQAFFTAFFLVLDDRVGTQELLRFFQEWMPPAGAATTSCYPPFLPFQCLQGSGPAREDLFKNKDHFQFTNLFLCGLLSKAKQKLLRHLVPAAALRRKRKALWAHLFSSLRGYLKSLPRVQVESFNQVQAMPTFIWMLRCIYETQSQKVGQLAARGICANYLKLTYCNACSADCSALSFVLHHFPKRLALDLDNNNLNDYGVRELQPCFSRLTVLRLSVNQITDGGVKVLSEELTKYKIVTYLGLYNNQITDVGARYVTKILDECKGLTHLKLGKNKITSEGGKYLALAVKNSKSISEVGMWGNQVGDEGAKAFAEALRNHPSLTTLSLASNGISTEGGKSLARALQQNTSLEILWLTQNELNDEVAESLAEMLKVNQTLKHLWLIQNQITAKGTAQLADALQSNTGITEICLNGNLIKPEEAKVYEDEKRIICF
The experiment in a line: blockers of NOD1 pathway activity – revised, SAR follow-up (AID 2333). The class given is functional.

Test [26] deals with Potassium voltage-gated channel subfamily KQT member 2 (Rattus norvegicus, UniProt O88943). The experiment in a line: rat KCNQ2 current potentiators – automated patch clamp, KCNQ2-CHO cells, SAR follow-up (AID 493113). The class given is functional. In general terms: Patch clamp records ionic current or voltage across a cell membrane.
The next test concerns the target CAAX prenyl protease 1 (Saccharomyces cerevisiae S288c, UniProt P47154). The experiment in a line: yeast CAAX protease Ste24 inhibition – biochemical, S. cerevisiae, plate reader, cherry-pick, dose response (AID 488815).
The target in another test is CAAX prenyl protease 2 (Saccharomyces cerevisiae S288c, UniProt Q03530). The class given is biochemical.

pEC50: −log10 of the molar value. The source made the active and inactive calls.

T1 sequence (P41145 whole entry): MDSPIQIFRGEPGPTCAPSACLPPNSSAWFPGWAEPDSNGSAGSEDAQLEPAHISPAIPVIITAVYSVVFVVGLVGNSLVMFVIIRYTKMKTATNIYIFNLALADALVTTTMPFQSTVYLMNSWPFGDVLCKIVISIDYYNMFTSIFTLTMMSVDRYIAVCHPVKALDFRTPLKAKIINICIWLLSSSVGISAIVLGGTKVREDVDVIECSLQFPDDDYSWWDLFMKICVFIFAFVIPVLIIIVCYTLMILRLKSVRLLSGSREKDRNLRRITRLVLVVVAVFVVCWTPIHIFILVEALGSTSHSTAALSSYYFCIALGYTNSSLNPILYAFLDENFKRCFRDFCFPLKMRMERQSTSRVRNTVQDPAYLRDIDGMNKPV
T4 sequence (P51452 whole entry): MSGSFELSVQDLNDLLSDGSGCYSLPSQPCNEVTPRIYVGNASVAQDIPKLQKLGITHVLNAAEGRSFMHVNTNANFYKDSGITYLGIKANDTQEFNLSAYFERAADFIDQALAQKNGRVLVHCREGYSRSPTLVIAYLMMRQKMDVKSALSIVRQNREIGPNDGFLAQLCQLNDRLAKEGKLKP
T5 sequence (Q00975 whole entry): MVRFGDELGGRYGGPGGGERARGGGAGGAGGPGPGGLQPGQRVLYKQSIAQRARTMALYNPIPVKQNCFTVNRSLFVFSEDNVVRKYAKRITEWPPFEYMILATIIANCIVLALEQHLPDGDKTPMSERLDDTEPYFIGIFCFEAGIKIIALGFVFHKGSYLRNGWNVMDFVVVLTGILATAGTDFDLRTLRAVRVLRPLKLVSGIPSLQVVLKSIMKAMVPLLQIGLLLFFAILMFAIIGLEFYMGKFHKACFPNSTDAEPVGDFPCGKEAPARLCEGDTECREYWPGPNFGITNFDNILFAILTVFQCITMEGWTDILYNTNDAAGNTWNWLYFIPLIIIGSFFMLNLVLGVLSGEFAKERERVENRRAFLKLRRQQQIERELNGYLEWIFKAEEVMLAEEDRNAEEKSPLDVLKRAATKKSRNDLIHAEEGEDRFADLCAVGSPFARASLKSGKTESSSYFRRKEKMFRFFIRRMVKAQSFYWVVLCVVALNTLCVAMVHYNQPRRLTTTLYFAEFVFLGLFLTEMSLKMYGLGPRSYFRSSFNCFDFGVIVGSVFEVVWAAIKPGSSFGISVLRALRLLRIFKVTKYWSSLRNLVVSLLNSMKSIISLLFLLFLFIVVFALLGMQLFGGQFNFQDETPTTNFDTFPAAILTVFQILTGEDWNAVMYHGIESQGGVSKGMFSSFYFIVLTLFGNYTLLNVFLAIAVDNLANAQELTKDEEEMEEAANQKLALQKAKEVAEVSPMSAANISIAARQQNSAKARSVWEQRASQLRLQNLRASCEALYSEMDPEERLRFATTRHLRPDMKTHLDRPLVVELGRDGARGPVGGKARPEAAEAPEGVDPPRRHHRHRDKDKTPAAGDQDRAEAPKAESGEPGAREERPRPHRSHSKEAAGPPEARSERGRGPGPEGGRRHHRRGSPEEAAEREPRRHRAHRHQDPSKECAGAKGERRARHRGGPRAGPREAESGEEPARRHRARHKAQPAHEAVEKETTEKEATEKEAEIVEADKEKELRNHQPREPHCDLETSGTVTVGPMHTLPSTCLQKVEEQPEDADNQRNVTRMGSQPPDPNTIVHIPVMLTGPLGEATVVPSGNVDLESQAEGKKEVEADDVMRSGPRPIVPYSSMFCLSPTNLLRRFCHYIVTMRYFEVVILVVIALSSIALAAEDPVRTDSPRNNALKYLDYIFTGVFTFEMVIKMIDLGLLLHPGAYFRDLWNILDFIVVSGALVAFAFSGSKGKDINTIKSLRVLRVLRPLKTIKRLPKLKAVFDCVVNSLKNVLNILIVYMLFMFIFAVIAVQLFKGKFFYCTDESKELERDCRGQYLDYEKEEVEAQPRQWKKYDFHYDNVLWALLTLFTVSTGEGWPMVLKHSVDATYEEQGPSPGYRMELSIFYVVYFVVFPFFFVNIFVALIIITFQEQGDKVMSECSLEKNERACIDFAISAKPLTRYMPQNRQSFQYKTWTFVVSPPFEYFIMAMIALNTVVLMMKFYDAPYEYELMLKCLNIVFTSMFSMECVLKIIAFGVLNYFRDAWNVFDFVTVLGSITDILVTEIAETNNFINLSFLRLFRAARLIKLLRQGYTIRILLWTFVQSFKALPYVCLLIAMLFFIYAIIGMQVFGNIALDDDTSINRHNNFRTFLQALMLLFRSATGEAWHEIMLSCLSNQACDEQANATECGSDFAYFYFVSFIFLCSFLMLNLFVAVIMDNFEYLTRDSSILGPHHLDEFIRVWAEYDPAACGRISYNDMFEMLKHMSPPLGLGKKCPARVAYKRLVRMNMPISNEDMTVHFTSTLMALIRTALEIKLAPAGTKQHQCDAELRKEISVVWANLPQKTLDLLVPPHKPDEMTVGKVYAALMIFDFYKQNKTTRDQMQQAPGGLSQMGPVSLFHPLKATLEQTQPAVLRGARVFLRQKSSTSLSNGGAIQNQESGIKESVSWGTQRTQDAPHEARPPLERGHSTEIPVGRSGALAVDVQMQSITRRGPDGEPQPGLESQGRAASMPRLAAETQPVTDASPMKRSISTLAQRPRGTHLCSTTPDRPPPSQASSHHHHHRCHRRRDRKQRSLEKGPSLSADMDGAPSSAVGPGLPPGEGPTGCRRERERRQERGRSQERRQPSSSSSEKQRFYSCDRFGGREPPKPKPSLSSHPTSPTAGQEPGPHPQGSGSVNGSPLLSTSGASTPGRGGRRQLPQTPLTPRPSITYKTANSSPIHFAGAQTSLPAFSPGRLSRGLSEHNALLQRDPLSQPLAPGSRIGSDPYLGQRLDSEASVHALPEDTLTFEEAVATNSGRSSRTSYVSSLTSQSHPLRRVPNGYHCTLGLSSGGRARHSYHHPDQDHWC
T5 sequence (Q02410 whole entry): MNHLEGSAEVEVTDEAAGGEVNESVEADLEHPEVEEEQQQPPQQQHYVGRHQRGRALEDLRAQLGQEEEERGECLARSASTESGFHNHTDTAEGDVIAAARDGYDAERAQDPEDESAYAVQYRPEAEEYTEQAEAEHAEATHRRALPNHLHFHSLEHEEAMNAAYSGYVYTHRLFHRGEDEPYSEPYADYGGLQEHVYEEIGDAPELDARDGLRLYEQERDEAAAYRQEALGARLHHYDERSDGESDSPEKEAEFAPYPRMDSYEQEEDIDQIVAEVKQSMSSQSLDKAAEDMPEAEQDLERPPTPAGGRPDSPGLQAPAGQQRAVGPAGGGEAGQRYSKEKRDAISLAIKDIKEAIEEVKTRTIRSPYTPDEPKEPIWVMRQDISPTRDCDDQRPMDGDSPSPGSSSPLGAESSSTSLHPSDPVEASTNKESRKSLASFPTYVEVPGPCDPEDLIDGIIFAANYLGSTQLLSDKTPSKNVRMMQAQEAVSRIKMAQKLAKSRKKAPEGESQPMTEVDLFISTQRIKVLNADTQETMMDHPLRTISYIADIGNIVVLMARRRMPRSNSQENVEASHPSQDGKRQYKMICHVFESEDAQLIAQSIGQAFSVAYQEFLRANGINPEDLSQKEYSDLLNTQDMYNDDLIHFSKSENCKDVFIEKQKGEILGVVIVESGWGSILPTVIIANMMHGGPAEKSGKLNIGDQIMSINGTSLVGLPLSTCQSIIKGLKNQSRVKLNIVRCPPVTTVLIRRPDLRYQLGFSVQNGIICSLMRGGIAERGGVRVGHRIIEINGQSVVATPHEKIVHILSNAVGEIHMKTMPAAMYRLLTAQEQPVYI

What is called EC50 is the concentration needed to bring the measured effect to its halfway point. As usually defined, the pEC50 is −log10 of the EC50, conventionally taken in molar units. Low values mean a high EC50, high ones a low EC50. As a reminder, the IC50 is the point on the concentration scale where inhibition reaches its midpoint. In the case of `COc1cc(Cl)c(C)cc1NC(=O)CSc1nnc(-c2ccccn2)n1Cc1ccco1`, the EC50 is 16.3 µM (inactive) in test [1]; 7.53 µM (active) in test [2]; > 10 µM (inactive) in test [3]; > 32 µM (inactive) in test [6]; > 32 µM (inactive) in test [7]; > 32 µM (inactive) on Mu-type opioid receptor [9]. Also, the EC50 on Mu-type opioid receptor [11] is > 32 µM (inactive). Besides, the pEC50 in test [4] is 4.92; in test [12], 4.69. The IC50 (in test [5]; in test [8]; in [10]; on Mu-type opioid receptor [13]) was > 32 µM (inactive) throughout.
The AC50 is the midpoint of the concentration-response curve, whichever way the signal moves. Turning to `COc1ccc(Cl)cc1N(C(=O)c1ccco1)C(C(=O)NC1CCCC1)c1ccncc1` (stereo unspecified), the concentration at half-maximal activity (AC50) in test [14] is 104 µM (active).
As to `CCOC(=O)C1=C(C)N=c2s/c(=C\c3ccc(OCC(=O)O)cc3)c(=O)n2C1c1ccc(Cl)cc1` (stereo unspecified), the IC50 is 11.3 µM (active) in [15]; > 20 µM (inactive) in [16]; > 50 µM (inactive) in [17]; > 158 µM (not active) in test [18]; 33.7 µM (active) in [19]; 8.8 µM (active) in test [20].
`FC(F)(F)Oc1cccc(/N=c2\ssnc2Cl)c1`: the IC50 on Phosphomannomutase 2 was > 100 µM (inactive); in test [21] it was 27.5 µM (active).
As to `Cc1cc(Cn2nc(-c3ccccc3)cc2C(=O)NCc2cccc(C(F)(F)F)c2)on1`, the concentration for half-maximal inhibition (IC50) in [22] was 3.4 µM (active); in [23] it was > 100 µM (inactive); in test [24] it was 31 µM (active).
As for `Cc1ccc([N+](=O)[O-])cc1NC(=O)c1cc(Cl)c2ccccc2c1O`, the IC50 was 1.17 µM (active) in the test with HEK293, 206 nM (active) at Tumor necrosis factor and 170 nM (active) in test [25].
Take `Cc1cc(C)c(NC(=O)CCc2ccccc2)c(C)c1`: the EC50 in test [26] was 1.6 µM (active).
For `CCOc1cccc(-c2c(C(=O)N/N=C/c3c(F)cccc3Cl)nnn2-c2nonc2N)c1`, the AC50 is > 100 µM (inactive) on CAAX prenyl protease 1 and 9 µM (active) on CAAX prenyl protease 2.
